Measured values reported in patent US10392443B2, “Diagnostic and therapeutic tool for cancer” (Agency for Science, Technology and Research, priority 2014, dated 2019).

Tested on: MHCC-LM3 cells
Test: Fibronectin attachment with recombinant Agrin coat, Western blot
Format: cell-based, human
Conditions: Agrin depleted MHCC-LM3 cells; fibronectin supplemented with 20 μg/ml recombinant Agrin as ECM coat; 2 h post plating
Description: 72 h post transfections, cell lysates were analysed for indicated proteins; (b and c) show Western blot analysis of control or Agrin depleted MHCC-LM3 cells, which were serum starved overnight, trypsinized and plated on fibronectin or fibronectin supplemented with 20 μg/ml recombinant Agrin coated surface. […] Representative images under 20× magnification are shown and results quantitated using Image J software (P value=0.005). Thus, FIG. 6 validates the role of Agrin as an ECM sensor regulating focal adhesion, cell spreading and invasion to affect EMT program in HCC cell lines.
Briefly, culture plates were coated with 10 μg/ml fibronectin for 1 h at 37° C. Either control or Agrin knockdown cells (2*10^3 cells/ml) were trypsinized and plated on coated dishes. Adhered cells were analysed either by live cell imaging for morphological changes at indicated time-points or lysates were collected and subjected to Western blot analysis.

recombinant Agrin: Pure recombinant Agrin protein obtained from MyBiosource
activation of focal adhesion kinase and Arp2/3: substantially increased
